Assay results published in US20150087037A1, “FERMENTATION PROCESS” (LanzaTech New Zealand Limited, priority 2013, published 2015).

Columns and labels:
[1] = test system: C. autoethanogenum DSM23693; test: Addition of other known inhibitor to a fermentation optimized for 2,3-Butanediol production; assay type: cell-based, Clostridium autoethanogenum; details: single addition, 15 mM, stable reactor, day 13.2, FIG. 13
Description: Fermentations with C. autoethanogenum DSM23693 were carried out in 1.5 L bioreactors at 37° C. The media was prepared according to Table 1. To achieve anaerobicity the reactor vessel was sparged with nitrogen. Prior to inoculation, the gas was switched to either steel mill gas containing H2 (3%), N2 (30%), CO (47%) and CO2 (20%) or pure gases (50% CO, 18-40% CO2, with the balance N2). The gas flow was initially set at 67 ml/min/L, increasing to 200 ml/min during mid-exponential phase, while the agitation was increased from 200 rpm to 800. Na2S was dosed into the bioreactor at 0.25 ml/hr. Once the OD600 reached 1.5, the bioreactor was switched to a continuous mode at a dilution rate of 2.0-1.6 d-l and a bacterial dilution rate of 0.9-0.6 d-l. During continuous mode gas and agitation were adjusted to 900-950 rpm and 800-900 ml/min. Na2S was increased to 1.0 ml/hr.
Liquid culture samples were taken at differing intervals over the duration of the fermentation. These samples were used to establish the optical density at 600 nm (spectrophotometer) and the level of substrates and products (high performance liquid chromatography—HPLC). HPLC was routinely used to quantify the level of acetate, ethanol and 2,3-butanediol. The input and output gas compositions were analysed using a gas chromatographer (GC), allowing measurement of CO and H2 consumption and CO2 production by the culture. […]

[2] = test system: Ketol-acid reductoisomerase IlvC; details: reference in the literature; cited from earlier work

For `CCC(C)(O)C(=O)O` (stereo not drawn) [2-hydroxy-2-methylbutyric acid], the “ethanol:2,3-BDO ratio” value [1] is listed as “drop”, the “production of 2,3-Butanediol” value [1] is listed as “increase” and the “inhibition of ilvC” value [2] is listed as “known inhibitor”.
